Assay: bioequivalence with a commercial form for oral administration
Type: in vivo
Settings: mixture of diastereoisomers, diastereoisomeric ratio (B/A+B) of 0.5 to 0.6

bioequivalence with a commercial form: bioequivalent
SMILES: COCC1=C(C(=O)OC(C)OC(=O)OC(C)C)N2C(=O)[C@@H](NC(=O)/C(=N\OC)c3csc(N)n3)C2SC1 (mixture of isomers) [cefpodoxim proxetil, 7-[2-(2-aminothiazol-4-yl)-2-(Z)-(methoxyimino)acetamido]-3-methoxymethyl-3-cephem-4-carboxylic acid-1-(isopropoxycarbonyloxy)ethyl ester]

— patent US6489470B1, “Process for the preparation of cefpodoxime proxetil diastereoisomers” (Biochemie Gesellschaft m.b.H., priority 1998, dated 2002)
